From the NIST ThermoML archive (doi:10.1021/je034062r)

How the values were obtained:
[1] = 101.3 kPa, Liquid mixture 1
[2] = xn = mol fraction of the nth substance listed; conditions: for surface tension liquid-gas: Pendant drop shape; for mass density: Liquid

CN1CCCC1=O [N-methylpyrrolidone] + CCCCCCC
[1]
Conditions	interfacial tension [mN/m]
297.76 K	1.202
302.78 K	0.93
307.81 K	0.68
312.84 K	0.45
317.79 K	0.24
320.65 K	0.137
322.8 K	0.079
323.75 K	0.055
324.8 K	0.033
325.43 K	0.019
325.81 K	0.012
326.1 K	0.009

CC(C)=O [acetone] + C1CCCCC1
[2]
Conditions	mass density, 288.15 K [kg/m3]	mass density, 298.15 K [kg/m3]	mass density, 308.15 K [kg/m3]	mass density, 318.15 K [kg/m3]	surface tension liquid-gas, 287.81 K [mN/m]	surface tension liquid-gas, 297.82 K [mN/m]	surface tension liquid-gas, 307.86 K [mN/m]	surface tension liquid-gas, 317.86 K [mN/m]
x2 = 0	798.2	787	775.4	762.5	23.94	22.78	21.59	20.33
x2 = 0.1002	790	779.7	768.4	756.9	23.54	22.25	21.03	19.91
x2 = 0.2001	786.6	775.3	764.2	753	23.19	22.02	20.78	19.63
x2 = 0.2993	783.2	772.3	761.4	750.2	23.23	22.02	20.82	19.63
x2 = 0.3979	781.1	769.7	759.6	748.6	23.33	22.08	20.89	19.7
x2 = 0.4964	779.7	769.2	758.6	747.8	23.58	22.22	21.14	20
x2 = 0.6	778.9	768.6	758.2	747.6	23.91	22.53	21.35	20.3
x2 = 0.6975	778.9	768.7	759.9	748.3	24.31	22.84	21.6	20.56
x2 = 0.7993	779.4	769.5	759.6	749.6	24.69	23.24	22.08	21.04
x2 = 0.8994	780.7	771.1	761.4	751.6	25.12	23.82	22.58	21.46

C1CCCCC1 [cyclohexane] + CC(C)=O
[2], x1 = 1
Conditions	mass density [kg/m3]	surface tension liquid-gas [mN/m]
287.81 K	–	25.34
288.15 K	783.2	–
297.82 K	–	24.2
298.15 K	773.9	–
307.86 K	–	23.02
308.15 K	764.4	–
317.86 K	–	21.84
318.15 K	754.8	–

CCCCCCCCCC [decane] + CN(C)C=O
[1]
Conditions	interfacial tension [mN/m]
292.78 K	3.78
297.77 K	3.41
302.79 K	3.1
307.81 K	2.72
312.79 K	2.4
317.8 K	2.09
322.78 K	1.82
327.81 K	1.53
332.81 K	1.24
337.76 K	0.95
342.78 K	0.69
346.8 K	0.48
348.32 K	0.37
350.11 K	0.32
352.77 K	0.19
353.65 K	0.15
354.76 K	0.105
355.31 K	0.083
355.62 K	0.07
356.15 K	0.056
356.72 K	0.035
357.15 K	0.019
357.45 K	0.012

CN(C)C=O [dimethylformamide] + CCCCCCC
[1]
Conditions	interfacial tension [mN/m]
297.83 K	2.49
302.83 K	2.19
307.85 K	1.87
312.85 K	1.59
317.86 K	1.26
322.86 K	0.93
327.88 K	0.66
332.88 K	0.42
334.87 K	0.302
336.86 K	0.213
337.88 K	0.169
338.88 K	0.122
339.87 K	0.086
340.87 K	0.042
341.25 K	0.032
341.88 K	0.02
342.18 K	0.011

CCCCCCC [heptane] + C1CCCCC1
[2], x2 = 0
Conditions	mass density [kg/m3]	surface tension liquid-gas [mN/m]
283.15 K	692.2	–
287.81 K	–	20.7
288.15 K	688	–
293.15 K	683.8	–
297.82 K	–	19.63
298.15 K	679.5	–
303.15 K	675.2	–
307.86 K	–	18.68
308.15 K	670.9	–
313.15 K	666.5	–
317.86 K	–	17.76
318.15 K	662.1	–
323.15 K	657.7	–
327.88 K	–	16.68
328.15 K	653.2	–
333.15 K	648.7	–

Cc1ccccc1 [toluene] + CC(C)=O
[2], x1 = 1
Conditions	mass density [kg/m3]	surface tension liquid-gas [mN/m]
283.15 K	875.9	–
287.81 K	–	28.93
288.15 K	871.4	–
293.15 K	866.9	–
297.82 K	–	27.76
298.15 K	862.4	–
303.15 K	857.8	–
307.86 K	–	26.6
308.15 K	853.2	–
313.15 K	848.6	–
317.86 K	–	25.46
318.15 K	843.9	–
323.15 K	839.2	–
327.88 K	–	24.29
328.15 K	834.5	–
333.15 K	829.8	–
